In paper PMC2267855, “Site-directed mutagenesis of Arginine282 suggests how protons and peptides are co-transported by rabbit PepT1” (The International Journal of Biochemistry & Cell Biology, 2008):
Residue numbers refer to the chain shown, from its start. Where a SMILES comes first, the peptide text is derived from it.

Legend:
R282H-PepT1 = molecular target: T1, R282H-PepT1 (Oryctolagus cuniculus, UniProt P36836, R282H); assay: Inhibition of [3H]-D-Phe-L-Gln uptake into Xenopus oocytes expressing R282H-PepT1 (competition, Ki); assay type: cell-based, rabbit; conditions: pHout 5.5, 0.4 μM [3H]-D-Phe-L-Gln
T1 construct: expressed in transfected cells; host or cells: Xenopus laevis oocytes injected with cRNA
T1 sequence (P36836 1-707 R282H): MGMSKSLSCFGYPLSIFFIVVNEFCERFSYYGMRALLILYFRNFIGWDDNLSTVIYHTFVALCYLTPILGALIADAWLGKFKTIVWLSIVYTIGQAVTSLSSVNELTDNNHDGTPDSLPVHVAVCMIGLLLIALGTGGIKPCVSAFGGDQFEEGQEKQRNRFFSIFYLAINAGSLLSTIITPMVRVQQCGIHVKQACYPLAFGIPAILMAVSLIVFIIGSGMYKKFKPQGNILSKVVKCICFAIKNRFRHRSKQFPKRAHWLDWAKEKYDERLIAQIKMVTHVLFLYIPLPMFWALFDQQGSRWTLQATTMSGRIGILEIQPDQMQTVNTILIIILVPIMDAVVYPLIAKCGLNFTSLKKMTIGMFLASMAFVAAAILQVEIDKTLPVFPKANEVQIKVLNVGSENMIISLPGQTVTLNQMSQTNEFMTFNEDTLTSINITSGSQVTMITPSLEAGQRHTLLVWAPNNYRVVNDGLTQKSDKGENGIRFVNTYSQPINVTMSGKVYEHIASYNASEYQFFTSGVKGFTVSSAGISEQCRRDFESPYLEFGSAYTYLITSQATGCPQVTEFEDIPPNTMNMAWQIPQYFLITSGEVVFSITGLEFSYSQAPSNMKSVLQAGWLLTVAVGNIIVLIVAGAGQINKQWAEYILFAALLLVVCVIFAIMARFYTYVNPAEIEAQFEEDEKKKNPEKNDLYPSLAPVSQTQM
Description: (§1) Zero-trans uptake of [^3H]-D-Phe-L-Gln (17.4 Ci/mmole, custom synthesised, Cambridge Research Biochemicals, Stockton-on-Tees, UK) was performed as previously described ([Meredith, 2004]). Briefly, 5 oocytes were incubated in 100 μl of uptake medium (95 mM NaCl, 2 mM KCl, 1 mM CaCl2, 0.42 mM MgCl2, 10 mM Tris/Hepes pH 7.4 or Tris/Mes pH 5.5) with tracer (0.4 μM) [^3H]-D-Phe-L-Gln. After incubation, the oocytes were washed sequentially five times in 1 ml of ice-cold 120 mM NaCl solution, lysed individually with 100 μl 2% (w/v) SDS and liquid scintillation counted. As a control non-injected oocytes were also incubated in uptake medium with [^3H]-D-Phe-L-Gln as above.
(§2) The affinity of wild-type and mutant PepT1 were assessed by competition studies with 0.4 μM [^3H]-D-Phe-L-Gln and Gly-L-Gln present in the uptake medium in concentrations from 0 to 2 mM using the protocol above, and the Ki calculated using the method of [Deves and Boyd (1989)].

R282D-PepT1 = molecular target: T2, R282D-PepT1 (Oryctolagus cuniculus, UniProt P36836, R282D); assay: Inhibition of [3H]-D-Phe-L-Gln uptake into Xenopus oocytes expressing R282D-PepT1 (competition, Ki); assay type: cell-based, rabbit; conditions: pHout 5.5, 0.4 μM [3H]-D-Phe-L-Gln
T2 construct: expressed in transfected cells; host or cells: Xenopus laevis oocytes injected with cRNA
T2 sequence (P36836 1-707 R282D): T1 sequence (P36836 1-707 R282H) with H282D
Description: as §1, §2

wild-type rabbit PepT1 = molecular target: T3, wild-type rabbit PepT1 (Oryctolagus cuniculus, UniProt P36836); assay: Inhibition of [3H]-D-Phe-L-Gln uptake into Xenopus oocytes expressing wild-type PepT1 (competition, Ki); assay type: cell-based; conditions: wild-type PepT1, pHout 5.5, 0.4 μM [3H]-D-Phe-L-Gln, Xenopus oocytes; read-out: Ki (inhibition of [3H]-D-Phe-L-Gln uptake)
T3 construct: expressed in transfected cells; host or cells: Xenopus laevis oocytes injected with cRNA
T3 sequence (P36836 1-707): T1 sequence (P36836 1-707 R282H) with H282R
Description: as §1, §2

Ki (R282H-PepT1): 300 ± 150 µM | Ki (R282D-PepT1): 340 ± 270 µM | Ki (wild-type rabbit PepT1): 390 ± 220 µM
Structure (SMILES): NCC(=O)N[C@@H](CCC(N)=O)C(=O)O [Gly-L-Gln] (H-Gly-Gln-OH)
